Some test systems named below: MALME-3M melanoma; SK-MEL-5 melanoma; SK-MEL-28 melanoma; SF-268 CNS; UACC-62 melanoma; SNB-19 CNS; OVCAR-3 ovarian; RXF 393 renal; NCI-H522 lung; T-47D breast; SN12C renal; SR leukemia; LOX IMVI melanoma.
Holding throughout (experiment): growth of human tumour cells (NCI), 48 h

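Each compound was tested at five concentrations against cells in 96-well plates for 48 hours. Definition used: TGI = concentration required for complete inhibition of growth.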 Where a SMILES comes first, the peptide text is derived from it. [ ]: non-standard residue; d: D form. The star is where a group is joined. Phe(4-NO2) = N[CH](Cc1ccc([N+](=O)[O-])cc1)C(=O)O; Cbz = O=C(OCc1ccccc1)*

As for `ON[C@@H]1C=C[C@H](n2cnc3c(NC4CC4)ncnc32)C1`, the TGI in the experiment on MALME-3M melanoma, in the experiment with SK-MEL-5 melanoma, with SK-MEL-28 melanoma, in the experiment with SF-268 CNS, with UACC-62 melanoma and with SNB-19 CNS was greater than 100 µM each time. Moreover, the TGI in the experiment on OVCAR-3 ovarian, in the experiment on RXF 393 renal, in the experiment with NCI-H522 lung, with T-47D breast, in the experiment on SN12C renal and in the experiment on SR leukemia was greater than 100 µM each time. In the experiment on LOX IMVI melanoma, this molecule showed a TGI greater than 100 µM.

In the case of `COC(=O)/C=C1/OC(c2ccccc2)=C(Br)C1=O`, the TGI in the experiment on MALME-3M melanoma, in the experiment on SK-MEL-5 melanoma, with SK-MEL-28 melanoma, in the experiment with SF-268 CNS, in the experiment on UACC-62 melanoma and in the experiment on SNB-19 CNS was greater than 100 µM in each case. Further, the TGI is greater than 100 µM in the experiment with OVCAR-3 ovarian; greater than 100 µM with RXF 393 renal; 62.2 µM in the experiment with NCI-H522 lung; greater than 100 µM with T-47D breast; 89.2 µM in the experiment with SN12C renal; greater than 100 µM in the experiment with SR leukemia. In addition, the TGI in the experiment on LOX IMVI melanoma was 43.3 µM.

For `COc1ccc(C)cc1NC(=S)N/N=C/c1ccco1`, the TGI in the experiment on MALME-3M melanoma was greater than 100 µM; with SK-MEL-5 melanoma, 32.9 µM; in the experiment with SK-MEL-28 melanoma, greater than 100 µM; in the experiment with SF-268 CNS, greater than 100 µM; with UACC-62 melanoma, greater than 100 µM; in the experiment with SNB-19 CNS, greater than 100 µM. The TGI in the experiment on OVCAR-3 ovarian was greater than 100 µM; in the experiment with RXF 393 renal, greater than 100 µM; in the experiment with NCI-H522 lung it was 69.2 µM; in the experiment with T-47D breast, greater than 100 µM; in the experiment on SN12C renal it was greater than 100 µM; with SR leukemia, greater than 100 µM. The molecule further had a TGI in the experiment on LOX IMVI melanoma greater than 100 µM.

With `COC(=O)c1ccc(C)cc1C1CN=NC12Cc1c(C)cccc1C2=O` (stereo not given), the TGI is greater than 90.3 µM with MALME-3M melanoma; greater than 53.2 µM in the experiment on SK-MEL-5 melanoma; greater than 100 µM in the experiment on SK-MEL-28 melanoma; greater than 100 µM in the experiment on SF-268 CNS; greater than 68.7 µM in the experiment on UACC-62 melanoma; greater than 100 µM in the experiment on SNB-19 CNS. In addition, the TGI is greater than 100 µM in the experiment with OVCAR-3 ovarian; greater than 100 µM in the experiment with RXF 393 renal; 97.4 µM with NCI-H522 lung; 81.7 µM in the experiment with T-47D breast; greater than 95.6 µM in the experiment with SN12C renal; greater than 80.2 µM in the experiment with SR leukemia. This molecule also gave a TGI in the experiment on LOX IMVI melanoma greater than 70.7 µM.

With `COC(=O)/C=C1\C(=O)Nc2ccc(Br)cc21`, the TGI in the experiment with MALME-3M melanoma amounted to 7.75 µM; in the experiment with SK-MEL-5 melanoma, 3.2 µM; with SK-MEL-28 melanoma, 8.43 µM; in the experiment on SF-268 CNS, 13.8 µM; in the experiment on UACC-62 melanoma it was 3.2 µM; in the experiment with SNB-19 CNS it was 11.4 µM. The TGI in the experiment on OVCAR-3 ovarian was determined as 2.95 µM; with RXF 393 renal, 3.27 µM; in the experiment on NCI-H522 lung, 2.34 µM; in the experiment on T-47D breast it was 5.6 µM; in the experiment with SN12C renal it was 3 µM; with SR leukemia, 1.56 µM. The molecule also yielded a TGI with LOX IMVI melanoma of 2.25 µM.

As to `CC(=O)O[C@H]1[C@@H](N2CCCCC2)C[C@H]2[C@@H]3CC=C4C[C@@H](N5CCCC5)CC[C@]4(C)[C@H]3CC[C@@]21C`, the TGI in the experiment on MALME-3M melanoma was 52.4 µM; in the experiment with SK-MEL-5 melanoma, greater than 100 µM; in the experiment with SK-MEL-28 melanoma it was 48.9 µM; in the experiment with SF-268 CNS, greater than 100 µM; in the experiment with UACC-62 melanoma, greater than 100 µM; in the experiment with SNB-19 CNS, greater than 100 µM. Moreover, the TGI in the experiment with OVCAR-3 ovarian is greater than 100 µM; in the experiment with RXF 393 renal it was greater than 100 µM; in the experiment with NCI-H522 lung, greater than 100 µM; in the experiment on T-47D breast it was greater than 100 µM; in the experiment on SN12C renal, greater than 100 µM; in the experiment on SR leukemia it was 8.96 µM. The molecule further had a TGI in the experiment on LOX IMVI melanoma greater than 100 µM.

As for `Cc1cc(NS(=O)(=O)c2ccc(NC(=O)c3ccc4nc5ccccc5c(Nc5ccc(S(N)(=O)=O)cc5)c4c3)cc2)no1`, the TGI in the experiment on MALME-3M melanoma is 61.8 µM; with SK-MEL-5 melanoma, 41 µM; in the experiment on SK-MEL-28 melanoma it was 50.7 µM; with SF-268 CNS, greater than 100 µM; in the experiment with UACC-62 melanoma, 67.7 µM; in the experiment on SNB-19 CNS, greater than 100 µM. The TGI in the experiment on OVCAR-3 ovarian stood at 74.4 µM; in the experiment on RXF 393 renal, 58.4 µM; with NCI-H522 lung it was 37.7 µM; in the experiment on T-47D breast, 71.3 µM; with SN12C renal, 81.5 µM; in the experiment with SR leukemia, 73.4 µM. In the experiment with LOX IMVI melanoma, this molecule gave a TGI of 26.5 µM.

For `c1ccc2c(c1)n1c(N3CCCC3)[n+]3ccccc3c1c1c3cccc[n+]3c(N3CCCC3)n21`, the TGI was greater than 100 µM in the experiment with MALME-3M melanoma; 65.8 µM with SK-MEL-5 melanoma; greater than 100 µM in the experiment on SK-MEL-28 melanoma; 45.2 µM with SF-268 CNS; greater than 100 µM with UACC-62 melanoma; greater than 100 µM in the experiment on SNB-19 CNS. In addition, the TGI in the experiment with OVCAR-3 ovarian, with RXF 393 renal, in the experiment on NCI-H522 lung, in the experiment on T-47D breast, in the experiment with SN12C renal and in the experiment with SR leukemia was greater than 100 µM in each case. This molecule also returned a TGI in the experiment with LOX IMVI melanoma greater than 100 µM.

With `COc1ccc(-c2c(C#N)c(N)nc(Sc3ccccc3N)c2C#N)cc1`, the TGI with MALME-3M melanoma is 42.4 µM; in the experiment with SK-MEL-5 melanoma, greater than 100 µM; in the experiment on SK-MEL-28 melanoma it was greater than 100 µM; with SF-268 CNS, 28.1 µM; in the experiment on UACC-62 melanoma, greater than 44.5 µM; with SNB-19 CNS, greater than 55.5 µM. Also, the TGI was greater than 100 µM in the experiment on OVCAR-3 ovarian; 30.1 µM in the experiment with RXF 393 renal; 62.5 µM in the experiment with NCI-H522 lung; 17.5 µM in the experiment with T-47D breast; greater than 100 µM in the experiment with SN12C renal; greater than 100 µM in the experiment on SR leukemia. For the same molecule, the TGI in the experiment with LOX IMVI melanoma was greater than 100 µM.

Consider `c1ccc([P+](Cc2ccc(C[P+](c3ccccc3)(c3ccccc3)c3ccccc3)s2)(c2ccccc2)c2ccccc2)cc1`, for which the TGI in the experiment with MALME-3M melanoma, in the experiment with SK-MEL-5 melanoma, in the experiment with SK-MEL-28 melanoma, in the experiment with SF-268 CNS, in the experiment with UACC-62 melanoma and in the experiment on SNB-19 CNS was greater than 100 µM throughout. The TGI in the experiment with OVCAR-3 ovarian, with RXF 393 renal, in the experiment with NCI-H522 lung, in the experiment with T-47D breast, in the experiment with SN12C renal and with SR leukemia was greater than 100 µM in each case. The molecule further displayed a TGI in the experiment on LOX IMVI melanoma greater than 100 µM.

Regarding `COc1ccc(-n2c(C)nc3ccc(NC4OCC(OC(C)=O)C(OC(C)=O)C4OC(C)=O)cc3c2=O)cc1` (stereo not given), the TGI in the experiment with MALME-3M melanoma, with SK-MEL-5 melanoma, in the experiment with SK-MEL-28 melanoma, in the experiment on SF-268 CNS, with UACC-62 melanoma and in the experiment on SNB-19 CNS was greater than 100 µM each time. Further, the TGI in the experiment with OVCAR-3 ovarian, with RXF 393 renal, in the experiment on NCI-H522 lung, in the experiment with T-47D breast, in the experiment with SN12C renal and with SR leukemia was greater than 100 µM in each case. In addition, the TGI with LOX IMVI melanoma was greater than 100 µM.

As to `CCCCCCCCCCCCCCCCNc1nc(=O)n(C2CC(O)C(COP(=O)(O)OC3CC(n4cc(F)c(=O)[nH]c4=O)OC3CO)O2)cc1F` (stereo not given), the TGI was greater than 72.1 µM in the experiment on MALME-3M melanoma; greater than 41.9 µM in the experiment on SK-MEL-5 melanoma; greater than 68.7 µM with SK-MEL-28 melanoma; greater than 34.2 µM in the experiment with SF-268 CNS; 17.3 µM in the experiment on UACC-62 melanoma; 3.39 µM in the experiment with SNB-19 CNS. Also, the TGI with OVCAR-3 ovarian is greater than 100 µM; in the experiment on RXF 393 renal it was 30.3 µM; in the experiment with NCI-H522 lung, 55.4 µM; in the experiment on T-47D breast, greater than 100 µM; with SN12C renal, greater than 100 µM; with SR leukemia, 13.1 µM. The molecule also came in with a TGI in the experiment with LOX IMVI melanoma of 17.1 µM.

`CCOC(=O)CCC(NC(=O)OCc1ccccc1)C(=O)NC(CCC(=O)OCC)C(=O)NC(CCC(=O)OCC)C(=O)NC(CCC(=O)OCC)C(=O)NC(CCC(=O)OCC)C(=O)NC(Cc1ccc([N+](=O)[O-])cc1)C(=O)NC(CCC(=O)OCC)C(=O)NC(CCC(=O)OCC)C(=O)NC(CCC(=O)OCC)C(=O)NC(CCC(=O)OCC)C(=O)NC(CCC(=O)OCC)C(=O)OCC` (stereo not given) (Cbz-E(OEt)E(OEt)E(OEt)E(OEt)E(OEt)[Phe(4-NO2)]E(OEt)E(OEt)E(OEt)E(OEt)E(OEt)-OEt; configuration not given here): the TGI with MALME-3M melanoma, in the experiment on SK-MEL-5 melanoma, with SK-MEL-28 melanoma, in the experiment with SF-268 CNS, in the experiment with UACC-62 melanoma and with SNB-19 CNS was greater than 50 µM in each case. In addition, the TGI in the experiment with OVCAR-3 ovarian, in the experiment with RXF 393 renal, in the experiment on NCI-H522 lung, in the experiment with T-47D breast, with SN12C renal and in the experiment on SR leukemia was greater than 50 µM throughout. The TGI in the experiment with LOX IMVI melanoma was greater than 50 µM.

As to `C=CCNC(=S)NC=C(C(N)=O)C(N)=O`, the TGI with MALME-3M melanoma, in the experiment with SK-MEL-5 melanoma, in the experiment on SK-MEL-28 melanoma, with SF-268 CNS, in the experiment with UACC-62 melanoma and with SNB-19 CNS was greater than 100 µM each time. In addition, the TGI in the experiment with OVCAR-3 ovarian, in the experiment with RXF 393 renal, in the experiment on NCI-H522 lung, in the experiment with T-47D breast, with SN12C renal and with SR leukemia was greater than 100 µM each time. Besides, the TGI in the experiment with LOX IMVI melanoma was greater than 100 µM.

For the molecule `CCc1cccc(CC)c1Nc1nc(-c2ccccc2-c2ccccc2)cs1`, the TGI in the experiment with MALME-3M melanoma, in the experiment with SK-MEL-5 melanoma, in the experiment on SK-MEL-28 melanoma, in the experiment on SF-268 CNS, in the experiment on UACC-62 melanoma and with SNB-19 CNS was greater than 100 µM throughout. The TGI with OVCAR-3 ovarian, with RXF 393 renal, in the experiment on NCI-H522 lung, with T-47D breast, in the experiment with SN12C renal and with SR leukemia was greater than 100 µM throughout. This molecule had a TGI in the experiment on LOX IMVI melanoma greater than 100 µM.
